PubChem BioAssay AID1117356 (Cheminformatics & Chemogenomics Research Group (CCRG), …, 2015)
Calls of active or inactive are those of the source. No rule for the calls is given here.

Biological target: Receptor-type tyrosine-protein kinase FLT3 (Homo sapiens) (UniProt P36888)
Assay: inhibitors of Homo sapiens fms-like tyrosine kinase 3, primary HTS, cell-free, LANCE Ultra TR-FRET, NPC library from NCATS (AID 1117356)
Settings: recombinant FLT3, LANCE Ultra TR-FRET kinase assay, stronger effect = higher value

Sequence of Receptor-type tyrosine-protein kinase FLT3 (Homo sapiens) (P36888 whole entry, looked up): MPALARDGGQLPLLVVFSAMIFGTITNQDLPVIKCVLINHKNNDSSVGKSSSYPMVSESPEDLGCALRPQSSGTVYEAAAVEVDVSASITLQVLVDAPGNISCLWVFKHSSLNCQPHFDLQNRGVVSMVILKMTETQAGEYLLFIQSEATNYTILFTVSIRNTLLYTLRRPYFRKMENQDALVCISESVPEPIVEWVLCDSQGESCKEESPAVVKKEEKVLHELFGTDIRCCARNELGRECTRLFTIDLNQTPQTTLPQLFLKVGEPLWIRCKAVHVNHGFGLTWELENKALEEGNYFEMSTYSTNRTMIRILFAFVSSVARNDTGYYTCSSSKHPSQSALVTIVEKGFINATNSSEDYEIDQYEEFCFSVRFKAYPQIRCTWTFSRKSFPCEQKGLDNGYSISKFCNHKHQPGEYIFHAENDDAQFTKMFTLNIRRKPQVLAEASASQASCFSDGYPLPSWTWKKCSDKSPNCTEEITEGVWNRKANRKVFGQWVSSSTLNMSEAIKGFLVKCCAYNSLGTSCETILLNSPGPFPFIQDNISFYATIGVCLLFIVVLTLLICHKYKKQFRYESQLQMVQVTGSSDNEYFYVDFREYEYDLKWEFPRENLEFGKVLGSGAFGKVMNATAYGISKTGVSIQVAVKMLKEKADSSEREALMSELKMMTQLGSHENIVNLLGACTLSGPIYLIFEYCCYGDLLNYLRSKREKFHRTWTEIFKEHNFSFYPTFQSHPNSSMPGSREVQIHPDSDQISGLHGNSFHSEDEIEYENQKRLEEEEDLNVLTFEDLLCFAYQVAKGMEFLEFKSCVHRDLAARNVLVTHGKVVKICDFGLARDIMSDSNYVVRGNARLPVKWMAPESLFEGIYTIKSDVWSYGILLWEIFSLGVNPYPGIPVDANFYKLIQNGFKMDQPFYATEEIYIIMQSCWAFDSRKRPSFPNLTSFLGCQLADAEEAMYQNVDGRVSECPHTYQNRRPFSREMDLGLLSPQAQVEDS

| SMILES | inhibition (at 20 µM) | inhibition (inhibition, at 0.2 µM) [%] | inhibition (inhibition, at 2 µM) [%] |
| --- | --- | --- | --- |
| COc1cc2nc(N3CCN(C(=O)c4ccco4)CC3)nc(N)c2cc1OC | 17.2% (inactive) | -0.58 | 8.33 |
| CC(C)(C)C(=O)OCOP(=O)(COCCn1cnc2c(N)ncnc21)OCOC(=O)C(C)(C)C | 6.16% (inactive) | -3.43 | 12.9 |
| Cc1ccc([N+](=O)[O-])[c]2c1[O][Hg]2 | 61.9% | -27.4 | 26.6 |
| CC(=O)Oc1ccc(C2(c3ccc(OC(C)=O)cc3)Oc3ccccc3NC2=O)cc1 | 17.5% (inactive) | -18.2 | 14.5 |
| O=C1c2c(O)ccc(O)c2C(=O)c2c(NCCNCCO)ccc(NCCNCCO)c21 | -19.7% (inactive) | -9.01 | 36.3 |
| CCc1nc(N)nc(N)c1-c1ccc(Cl)cc1 | -9.63% (inactive) | -33.1 | 1 |
| C=C(C)[C@H]1Cc2c(ccc3c2O[C@@H]2COc4cc(OC)c(OC)cc4[C@@H]2C3=O)O1 | 1.11% (inactive) | -12.6 | 7.73 |
| COC(=O)Nc1nc2ccc(C(=O)c3ccccc3)cc2[nH]1 | 11.7% (inactive) | -25.2 | 8.15 |
| COC(=O)Nc1nc2ccc(C(=O)C3CC3)cc2[nH]1 | 68.8% | -3.31 | 33.1 |
| CC(C)C[C@H](NC(=O)[C@H](CCc1ccccc1)NC(=O)CN1CCOCC1)C(=O)N[C@@H](Cc1ccccc1)C(=O)N[C@@H](CC(C)C)C(=O)[C@@]1(C)CO1 | 8.47% (inactive) | -8.96 | 15 |
| COC(=O)Nc1nc2ccc(Sc3ccccc3)cc2[nH]1 | -9.66% (inactive) | -10.8 | 5.38 |
| CC(C)C[C@H](NC(=O)[C@H](Cc1ccccc1)NC(=O)c1cnccn1)B(O)O | 3.25% (inactive) | -26.9 | 13.7 |
| Cc1cc(C)c(/C=C2\C(=O)Nc3ccccc32)[nH]1 | 97.7% | 93.8 | 98.6 |
| C[C@@]12C(=O)OC(=O)[C@]1(C)C1CCC2O1 | -4.71% (inactive) | -12.1 | 6.97 |
| COc1cc2c(c(OC)c1OC)-c1ccc(OC)c(=O)cc1[C@@H](NC(C)=O)CC2 | -1.26% (inactive) | -14.9 | 5.22 |
| CCCN(CCC)C(=O)C(CCC(=O)OCCCN1CCN(CCOC(=O)Cc2c(C)n(C(=O)c3ccc(Cl)cc3)c3ccc(OC)cc23)CC1)NC(=O)c1ccccc1 (configuration not stated) | 9.63% (inactive) | -10.3 | 12.7 |
| CCCSc1ccc2nc(NC(=O)OC)[nH]c2c1 | 10.2% (inactive) | -15.1 | 22.7 |
| COC(=O)c1nc(Cl)c(Cl)nc1N | 60.2% | 16.3 | 51 |
| O=C(CCl)c1ccc(Cl)cc1Cl | -7.4% (inactive) | -30.4 | 7.53 |
| COC(=O)Nc1nc2ccc(S(=O)c3ccccc3)cc2[nH]1 (configuration not stated) | -8.2% (inactive) | -15.5 | 16.7 |
| CC(C)(C)C1CCC(CC2=C(O)c3ccccc3C(=O)C2=O)CC1 (configuration not stated) | 37.2% (inactive) | -5.99 | 21.2 |
| Oc1c(Cl)cc(Cl)cc1Sc1cc(Cl)cc(Cl)c1O | 13.6% (inactive) | -17 | 3.25 |
| Cc1cc(=O)c2c(O)c3c(O)cc(=O)c4c3c3c(cc(O)c1c23)C(C)(C)C=4O | 62.5% | -7.52 | 65.4 |
| O=c1c(-c2ccccc2)c1-c1ccccc1 | 41.7% (inactive) | -22 | 10.9 |
| O=[N+]([O-])c1ccc(O)c2ncccc12 | 7.93% (inactive) | -14.3 | 3.78 |
| COc1c(C)c2c(c(O)c1C/C=C(\C)CCC(=O)OCCN1CCOCC1)C(=O)OC2 | 16% (inactive) | -7.13 | 8.28 |
| S=c1nc[nH]c2nc[nH]c12 | -15% (inactive) | -36.3 | -4.89 |
| CCC(C)n1ncn(-c2ccc(N3CCN(c4ccc(OC[C@H]5CO[C@](Cn6cncn6)(c6ccc(Cl)cc6Cl)O5)cc4)CC3)cc2)c1=O (some centres not stated) | -23.6% (inactive) | -46.1 | 0.24 |
| Cn1cnc([N+](=O)[O-])c1Sc1ncnc2nc[nH]c12 | -6.53% (inactive) | -22.4 | 4.78 |
